Source: patent publication US20030144249A1, “Use of organophosphorous compounds for producing a medicament for treating infections” (priority 2000, published 2003)

Key:
Plasmodium falciparum = experiment: Antimalarial activity, in vitro culture, [3H]-hypoxanthine incorporation; assay type: cell-based; conditions: 72 h, asynchronous culture, 48 h + 24 h with [3H]-hypoxanthine, read-out: IC50 (nM) of malaria culture (Plasmodium falciparum)
Method: The antimalarial activity of substances 1 to 8 (see page 5) was determined using in vitro cultures of the causative organism of malaria, Plasmodium falciparum. 200 μl of an asynchronous Plasmodium falciparum culture with a 0.4% blood parasite content and a heamatocrit of 2% were loaded into each of the wells of a 96 well microtitre plate. A serial dilution series of the compounds was then prepared in steps of three between concentrations of 100 and 0.14 μmol l^−1. The plates were incubated at 37° C., 3% CO2 and 5% O2 over a period of 48 hours. 30 μl of medium supplemented with 27 μCi ml^−1 of [^3H]-hypoxanthine were then added to each well. After 24 hours' incubation, the parasites were harvested by filtration through glass fibre filters and the incorporated radioactivity was measured. Inhibition of parasite growth was measured as the percentage inhibition of tritium incorporation. Inhibition of parasite growth was expressed as the percentage inhibition of tritium incorporation relative to a comparison without the substance. The median inhibitory concentration (IC50) of the substance was determined by extrapolating the values.

Beta vulgaris [1] = experiment: Herbicidal activity, soil, pre-emergence; assay type: in vivo; conditions: Soil, pre-emergence
Method: (§1) Herbicidal activity is determined using standard methods.
(§2) Substances 1 to 8 listed on page 5 are again investigated.

Sinapis arvensis [2] = experiment: Herbicidal activity, soil, pre-emergence; assay type: in vivo; conditions: Mutarda arvensis, Soil, pre-emergence
Method: as §1, §2

Cyperus esculentus [3] = experiment: Herbicidal activity, soil, pre-emergence; assay type: in vivo; conditions: Soil, pre-emergence
Method: as §1, §2

Amaranthus retroflexus [4] = experiment: Herbicidal activity, soil, pre-emergence; assay type: in vivo; conditions: Soil, pre-emergence
Method: as §1, §2

Zea mays [5] = experiment: Herbicidal activity, soil, pre-emergence; assay type: in vivo; conditions: Soil, pre-emergence
Method: as §1, §2

Abutilon theophrasti [6] = experiment: Herbicidal activity, soil, pre-emergence; assay type: in vivo; conditions: Soil, pre-emergence
Method: as §1, §2

Xanthium strumarium [7] = experiment: Herbicidal activity, soil, pre-emergence; assay type: in vivo; conditions: Soil, pre-emergence
Method: as §1, §2

Galium aperine [8] = experiment: Herbicidal activity, soil, pre-emergence; assay type: in vivo; conditions: Soil, pre-emergence
Method: as §1, §2

Alopecurus myosuroides [9] = experiment: Herbicidal activity, soil, pre-emergence; assay type: in vivo; conditions: Soil, pre-emergence
Method: as §1, §2

Setaria viridis [10] = experiment: Herbicidal activity, soil, pre-emergence; assay type: in vivo; conditions: Soil, pre-emergence
Method: as §1, §2

Avena fatua [11] = experiment: Herbicidal activity, soil, pre-emergence; assay type: in vivo; conditions: Soil, pre-emergence
Method: as §1, §2

[12] = target: T1, DOXP reductoisomerase from Helicobacter pylori (Helicobacter pylori, UniProt P56139); experiment: DOXP reductoisomerase inhibition (NADPH oxidation at 365 nm); assay type: biochemical; conditions: recombinant enzyme; 0.3 mM NADPH, 1 mM DOXP, pH 7.5; read-out: IC50 (nM) of DOXP reductoisomerase from Helicobacter pylori
T1 construct: made in house; host or cells: Helicobacter pylori (so in the source)
T1 sequence (P56139 1-368): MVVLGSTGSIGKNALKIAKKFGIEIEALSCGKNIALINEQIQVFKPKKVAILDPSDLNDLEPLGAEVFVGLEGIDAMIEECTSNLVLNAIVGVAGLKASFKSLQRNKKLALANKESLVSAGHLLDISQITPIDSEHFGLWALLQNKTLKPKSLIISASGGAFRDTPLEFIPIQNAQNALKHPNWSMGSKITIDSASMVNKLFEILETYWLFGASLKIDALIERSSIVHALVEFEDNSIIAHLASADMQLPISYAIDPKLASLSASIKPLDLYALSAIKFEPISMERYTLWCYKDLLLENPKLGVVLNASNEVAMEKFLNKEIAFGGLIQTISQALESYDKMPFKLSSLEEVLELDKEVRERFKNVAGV
Method: The DOXP reductoisomerase of Helicobacter pylori was expressed as a recombinant protein in Helicobacter pylori. The activity of DOXP reductoisomerase was determined in a batch containing 100 mM tris-HCl (pH=7.5), 1 mM MnCl2, 0.3 mM NADPH and 1 mM DOXP.
The oxidation of NADPH was here measured at 365 nm in a spectrophotometer. The inhibition studies were performed by measuring the activity of DOXP reductoisomerase in the presence of compounds 1 to 8 (see page 5) at various concentrations between 0. 1 and 100 μmol l^−1.

Beta vulgaris [13] = experiment: Herbicidal activity, soil, post-emergence; assay type: in vivo; conditions: Soil, post-emergence
Method: as §1, §2

Sinapis arvensis [14] = experiment: Herbicidal activity, soil, post-emergence; assay type: in vivo; conditions: Mutarda arvensis, Soil, post-emergence
Method: as §1, §2

Cyperus esculentus [15] = experiment: Herbicidal activity, soil, post-emergence; assay type: in vivo; conditions: Soil, post-emergence
Method: as §1, §2

Amaranthus retroflexus [16] = experiment: Herbicidal activity, soil, post-emergence; assay type: in vivo; conditions: Soil, post-emergence
Method: as §1, §2

Zea mays [17] = experiment: Herbicidal activity, soil, post-emergence; assay type: in vivo; conditions: Soil, post-emergence
Method: as §1, §2

Abutilon theophrasti [18] = experiment: Herbicidal activity, soil, post-emergence; assay type: in vivo; conditions: Soil, post-emergence
Method: as §1, §2

Xanthium strumarium [19] = experiment: Herbicidal activity, soil, post-emergence; assay type: in vivo; conditions: Soil, post-emergence
Method: as §1, §2

Galium aperine [20] = experiment: Herbicidal activity, soil, post-emergence; assay type: in vivo; conditions: Soil, post-emergence
Method: as §1, §2

Alopecurus myosuroides [21] = experiment: Herbicidal activity, soil, post-emergence; assay type: in vivo; conditions: Soil, post-emergence
Method: as §1, §2

Setaria viridis [22] = experiment: Herbicidal activity, soil, post-emergence; assay type: in vivo; conditions: Soil, post-emergence
Method: as §1, §2

Avena fatua [23] = experiment: Herbicidal activity, soil, post-emergence; assay type: in vivo; conditions: Soil, post-emergence
Method: as §1, §2

Lepidium = experiment: Herbicidal activity, water, pre-emergence; assay type: in vivo; conditions: Water
Method: as §1, §2

Echinochloa = experiment: Herbicidal activity, water, pre-emergence; assay type: in vivo; conditions: Water
Method: as §1, §2

Solanum = experiment: Herbicidal activity, water, pre-emergence; assay type: in vivo; conditions: Water
Method: as §1, §2

Rice = experiment: Herbicidal activity, water, pre-emergence; assay type: in vivo; conditions: Oryza sativa, Water
Method: as §1, §2

[24] = 2000 gram/hectare, read-out: Herbicidal activity, Beta vulgaris
[25] = 2000 gram/hectare, read-out: Herbicidal activity, Sinapis arvensis
[26] = 2000 gram/hectare, read-out: Herbicidal activity, Cyperus esculentus
[27] = 2000 gram/hectare, read-out: Herbicidal activity, Amaranthus retroflexus
[28] = 2000 gram/hectare, read-out: Herbicidal activity, Zea mays
[29] = 2000 gram/hectare, read-out: Herbicidal activity, Abutilon theophrasti
[30] = 2000 gram/hectare, read-out: Herbicidal activity, Xanthium strumarium
[31] = 2000 gram/hectare, read-out: Herbicidal activity, Galium aperine
[32] = 2000 gram/hectare, read-out: Herbicidal activity, Alopecurus myosuroides
[33] = 2000 gram/hectare, read-out: Herbicidal activity, Setaria viridis
[34] = 2000 gram/hectare, read-out: Herbicidal activity, Avena fatua

In the case of CCCC(=O)N(O)C(C)N(C)CC(O)P(C)(C)=O (centres unmarked) [Compound 1], the IC50 (Plasmodium falciparum) is reported as 580 nM, the plant injury at 500 g/ha (Beta vulgaris [1]; 500 gram/hectare) is reported as 30% and the pest or weed control at 500 g/ha (Sinapis arvensis [2]; 500 gram/hectare) is reported as 40%. It also gave a pest or weed control at 500 g/ha (Cyperus esculentus [3]; 500 gram/hectare) of 0%, a pest or weed control at 500 g/ha (Amaranthus retroflexus [4]; 500 gram/hectare) of 0% and a plant injury at 500 g/ha (Zea mays [5]; 500 gram/hectare) of 0%. The pest or weed control at 500 g/ha (Abutilon theophrasti [6]; 500 gram/hectare) was 0%, the pest or weed control at 500 g/ha (Xanthium strumarium [7]; 500 gram/hectare) was 0% and the pest or weed control at 500 g/ha (Galium aperine [8]; 500 gram/hectare) was 0%. The pest or weed control at 500 g/ha (Alopecurus myosuroides [9]; 500 gram/hectare) was 40%, the pest or weed control at 500 g/ha (Setaria viridis [10]; 500 gram/hectare) was 0% and the pest or weed control at 500 g/ha (Avena fatua [11]; 500 gram/hectare) was 0%. It also gave an IC50 [12] of 80 nM, a plant injury at 500 g/ha (Beta vulgaris [13]; 500 gram/hectare) of 50% and a pest or weed control at 500 g/ha (Sinapis arvensis [14]; 500 gram/hectare) of 95%. The pest or weed control at 500 g/ha (Cyperus esculentus [15]; 500 gram/hectare) was 0%, the pest or weed control at 500 g/ha (Amaranthus retroflexus [16]; 500 gram/hectare) was 0% and the plant injury at 500 g/ha (Zea mays [17]; 500 gram/hectare) was 80%. It also gave a pest or weed control at 500 g/ha (Abutilon theophrasti [18]; 500 gram/hectare) of 40%, a pest or weed control at 500 g/ha (Xanthium strumarium [19]; 500 gram/hectare) of 60% and a pest or weed control at 500 g/ha (Galium aperine [20]; 500 gram/hectare) of 60%. For the same compound, the pest or weed control at 500 g/ha (Alopecurus myosuroides [21]; 500 gram/hectare) was 60%, the pest or weed control at 500 g/ha (Setaria viridis [22]; 500 gram/hectare) was 95% and the pest or weed control at 500 g/ha (Avena fatua [23]; 500 gram/hectare) was 50%. For the same compound, the pest or weed control at 1000 g/ha (Lepidium; 1000 gram/hectare) was 50%, the pest or weed control at 1000 g/ha (Echinochloa; 1000 gram/hectare) was 70% and the pest or weed control at 1000 g/ha (Solanum; 1000 gram/hectare) was 0%. It also gave a plant injury at 1000 g/ha (Rice; 1000 gram/hectare) of 40%.

In the case of CN(CC(=O)P(C)(C)=O)CN(O)C(=O)C(F)(F)F [Compound 7, 2-(N-(N-Trifluoracetyl-N-hydroxyaminomethyl)-N-methyl)amino-1-oxoethyldimethylphosphine oxide], the IC50 (Plasmodium falciparum) is reported as 1100 nM, the plant injury at 2000 g/ha (Beta vulgaris [1]; [24]) is reported as 70% and the pest or weed control at 2000 g/ha (Sinapis arvensis [2]; [25]) is reported as 30%. It also gave a pest or weed control at 2000 g/ha (Cyperus esculentus [3]; [26]) of 0%, a pest or weed control at 2000 g/ha (Amaranthus retroflexus [4]; [27]) of 20% and a plant injury at 2000 g/ha (Zea mays [5]; [28]) of 30%. The pest or weed control at 2000 g/ha (Abutilon theophrasti [6]; [29]) was 0%, the pest or weed control at 2000 g/ha (Xanthium strumarium [7]; [30]) was 0% and the pest or weed control at 2000 g/ha (Galium aperine [8]; [31]) was 0%. For the same compound, the pest or weed control at 2000 g/ha (Alopecurus myosuroides [9]; [32]) was 30%, the pest or weed control at 2000 g/ha (Setaria viridis [10]; [33]) was 0% and the pest or weed control at 2000 g/ha (Avena fatua [11]; [34]) was 30%. It also gave an IC50 [12] of 300 nM, a plant injury at 2000 g/ha (Beta vulgaris [13]; [24]) of 50% and a pest or weed control at 2000 g/ha (Sinapis arvensis [14]; [25]) of 70%. The pest or weed control at 2000 g/ha (Cyperus esculentus [15]; [26]) was 0%, the pest or weed control at 2000 g/ha (Amaranthus retroflexus [16]; [27]) was 50% and the plant injury at 2000 g/ha (Zea mays [17]; [28]) was 70%. For the same compound, the pest or weed control at 2000 g/ha (Abutilon theophrasti [18]; [29]) was 50%, the pest or weed control at 2000 g/ha (Xanthium strumarium [19]; [30]) was 90% and the pest or weed control at 2000 g/ha (Galium aperine [20]; [31]) was 70%. It also gave a pest or weed control at 2000 g/ha (Alopecurus myosuroides [21]; [32]) of 80%, a pest or weed control at 2000 g/ha (Setaria viridis [22]; [33]) of 90% and a pest or weed control at 2000 g/ha (Avena fatua [23]; [34]) of 80%. The pest or weed control at 4000 g/ha (Lepidium; 4000 gram/hectare, read-out: Herbicidal activity, Lepidium) was 40%, the pest or weed control at 4000 g/ha (Echinochloa; 4000 gram/hectare, read-out: Herbicidal activity, Echinochloa) was 40% and the pest or weed control at 4000 g/ha (Solanum; 4000 gram/hectare, read-out: Herbicidal activity, Solanum) was 30%. It also gave a plant injury at 4000 g/ha (Rice; 4000 gram/hectare, read-out: Herbicidal activity, Rice) of 30%.
